Here are results for five compounds from PMC11198849, “Expression and purification of human neutrophil proteinase 3 from insect cells and characterization of ligand binding” (PLOS ONE, 2024).

Values joined by “and” are separate entries in the source; they are usually repeats but may differ in a detail not shown here. Identical values can stand only once. Like-named read-outs stand apart in the source and are kept apart here.

Test [1] addresses T1, rPR3 (Homo sapiens, UniProt P24158).
T1 construct: TEV cleavage site (C); 6x His-tag (C); made in house; host or cells: Spodoptera frugiperda Sf9 (baculovirus), secreted
T1 sequence (P24158 28-248 limits assumed): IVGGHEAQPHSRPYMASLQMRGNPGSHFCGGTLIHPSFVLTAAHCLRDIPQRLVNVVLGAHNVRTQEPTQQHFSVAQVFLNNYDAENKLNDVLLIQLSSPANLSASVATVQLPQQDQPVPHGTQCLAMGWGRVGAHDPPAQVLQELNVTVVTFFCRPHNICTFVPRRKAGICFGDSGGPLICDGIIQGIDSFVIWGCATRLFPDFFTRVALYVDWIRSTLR
Nature of the test: SPR binding assay on biotinylated rPR3. The settings on record: for SPR binding behaviour towards rPR3 (in words): sensorgrams Fig 5.

In another test the target is T2, hNE (Homo sapiens, UniProt P08246).
T2 construct: Enzymes purified from human neutrophiles (hPR3 and hNE); purchased Athens Research and Technology; host or cells: human neutrophils
T2 sequence (P08246 30-247 limits assumed): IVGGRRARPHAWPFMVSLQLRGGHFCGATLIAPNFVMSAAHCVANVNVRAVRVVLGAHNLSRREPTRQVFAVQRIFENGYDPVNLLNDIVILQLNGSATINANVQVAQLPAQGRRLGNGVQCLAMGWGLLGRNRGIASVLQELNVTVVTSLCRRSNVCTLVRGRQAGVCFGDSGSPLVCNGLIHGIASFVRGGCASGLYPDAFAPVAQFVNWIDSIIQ
Nature of the test: Fluorescence-based enzymatic activity assay with hNE (MeOSuc-AAPV-AMC substrate). It is filed as biochemical. The settings on record: for %Relative activity of enzyme: hNE, Rep1-Rep3.

Another test deals with T3, hPR3 (Homo sapiens, UniProt P24158).
T3 construct: Enzymes purified from human neutrophiles (hPR3 and hNE); purchased Athens Research and Technology; host or cells: human neutrophils
T3 sequence (P24158 28-248 limits assumed): T1 sequence (P24158 28-248 limits assumed)
Nature of the test: Fluorescence-based enzymatic activity assay with hPR3 (FRET peptide Abz-VADnVADYQ-EDDnp). It is filed as biochemical.

Test [2] addresses T1, rPR3. Kind of test: Fluorescence-based enzymatic activity assay with rPR3 (FRET peptide Abz-VADnVADYQ-EDDnp). The test is classed as biochemical.
Procedure: (§1) The reaction was started by adding the FRET peptide (Abz-VADnVADYQ-EDDnp) at a final concentration of 5 μM. The fluorescent signal (excitation filter 320, emission filter 420) was read every 30 s for 30 min at 30°C with a fluorescent plate reader (Tecan Spark) and the enzymatic activity was measured from the initial linear portion of the slope (fluorescent signal/min) of the time-course curve of reaction progress.
(§2) Data were fitted using nonlinear regression analysis (GraphPad Prism v.9) to determine the IC50 values.
Test [3] addresses α1-antitrypsin (Homo sapiens) (UniProt P01009). The settings on record: cited from earlier work.
A further test relates to PR3. The settings on record: cited from earlier work.
[4] abbreviates: affinity data, single replicates Rep1-Rep3, read-out: Steady state KD.
[5] abbreviates: steady state, average and SD of triplicates, read-out: Steady state KD.
Setting [6] is: IC50 replicates Rep1-Rep3, read-out: hPR3 IC50.
[7] abbreviates: mean ± SD (n = 3), read-out: IC50 hPR3.
The mark [8] stands for this setting: IC50 replicates Rep1-Rep3, read-out: rPR3 IC50.
The mark [9] stands for this setting: mean ± SD (n = 3), read-out: IC50 rPR3.

Chain of α1-antitrypsin (Homo sapiens) (P01009 25-418): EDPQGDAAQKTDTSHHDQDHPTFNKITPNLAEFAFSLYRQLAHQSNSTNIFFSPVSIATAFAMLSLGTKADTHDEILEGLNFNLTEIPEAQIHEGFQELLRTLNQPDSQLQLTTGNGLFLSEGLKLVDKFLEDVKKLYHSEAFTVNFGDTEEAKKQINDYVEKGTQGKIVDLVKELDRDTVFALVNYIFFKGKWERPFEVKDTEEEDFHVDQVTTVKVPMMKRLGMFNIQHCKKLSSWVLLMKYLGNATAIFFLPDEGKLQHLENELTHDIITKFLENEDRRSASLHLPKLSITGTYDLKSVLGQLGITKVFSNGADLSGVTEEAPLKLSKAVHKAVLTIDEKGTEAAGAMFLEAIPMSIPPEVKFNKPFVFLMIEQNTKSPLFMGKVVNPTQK
Procedure for hNE: The reaction was started by adding the fluorogenic substrate (MeOSuc-AAPV-AMC) at a final concentration of 5 μM. The fluorescent signal (excitation filter 360, emission filter 460) was read as described above for PR3.
as §2
Procedure for hPR3: as §1, §2

For the compound `Cc1c(-c2ccnn2C)cc(C(=O)NCc2ccc(S(C)(=O)=O)cn2)c(=O)n1-c1cccc(C(F)(F)F)c1` [Alvelestat], the Kd at rPR3 [1] (setting [4]) is 1.95e-05 M and 1.26e-05 M and 8.36e-06 M; on rPR3 [1] (setting [5]) it was 1.35e-05 ± 5.6e-06 M. On rPR3 [1], the “SPR binding behaviour towards rPR3 (in words)” value was “weak rPR3 binder with fast association and dissociation rates”. For the same compound, the concentration for half-maximal inhibition (IC50) at hNE (IC50 replicates Rep1-Rep3) was 10.7 nM and 12.1 nM and 11.6 nM. Further, the “%Relative activity of enzyme” value on hNE (inhibitor 1.95 nM) is 78.8834% and 84.934% and 85.1448%; at hNE (inhibitor 3.9 nM), 78.3028% and 76.8727%; at hNE (inhibitor 7.8 nM) it was 61.4733% and 58.7939% and 60.1294%; on hNE (inhibitor 15.6 nM) it was 40.7947% and 40.9606% and 39.7611%; on hNE (inhibitor 31.25 nM), 27.1224% and 29.7155% and 27.7611%; at hNE (inhibitor 62.5 nM), 15.0503% and 20.2323% and 16.5108%. For the same compound, at hNE (inhibitor 125 nM), the “%Relative activity of enzyme” value is 9.7027% and 8.522% and 9.4691%.

Turning to `CC1=C(C#N)[C@@H](c2ccc(C#N)cc2S(C)(=O)=O)N(C)C(=O)N1c1cccc(C(F)(F)F)c1` [BAY-85-8501], the dissociation constant Kd was 1.4e-08 M on rPR3 [1] (1:1 binding kinetic model, average and SD of triplicates, read-out: KD); 2.87e-08 M at rPR3 [1] (affinity data, average of Rep1-Rep3, read-out: Steady state KD (M), Average); 2.6e-08 M and 4.4e-08 M and 1.6e-08 M at rPR3 [1] (setting [4]); 1.37e-08 M on rPR3 [1] (average of Rep1-Rep3, read-out: KD (M), kinetics 1:1, Average); 1.37e-08 M and 1.09e-08 M and 1.66e-08 M on rPR3 [1] (single replicates Rep1-Rep3, read-out: KD (M), kinetics 1:1); 3e-08 ± 1e-08 M at rPR3 [1] (setting [5]). The concentration for half-maximal inhibition (IC50) at hPR3 (setting [6]) is 24.3 nM and 24.7 nM and 31.5 nM; at hPR3 (setting [7]), 27 ± 4 nM; at rPR3 [2] (setting [8]), 67.7 nM and 55 nM and 53.6 nM; on rPR3 [2] (setting [9]), 59 ± 8 nM. In addition, the Ki on rPR3 [2] (Cheng-Prusoff equation, literature Km 27.4 μM, read-out: Ki derived from the IC50 value) was found to be 50 nM.

Consider `CC(C)(C)C(=O)Oc1ccc(S(=O)(=O)Nc2ccccc2C(=O)NCC(=O)O)cc1` [Sivelestat], for which, on rPR3 [1], the “SPR binding behaviour towards rPR3 (in words)” value is “hardly dissociated”. Besides, the half-maximal inhibitory concentration (IC50) on hPR3 (setting [6]) was 33.6 nM and 34.1 nM and 30.4 nM; on hPR3 (setting [7]), 33 ± 2 nM; on rPR3 [2] (setting [8]) it was 35.8 nM and 29.5 nM and 30.1 nM; at rPR3 [2] (setting [9]), 32 ± 4 nM.

Proteinase 3 (from UniProt P24158): the Ki in test [3] is 38 nM.

Take “α1-antitrypsin: endogenous serine protease inhibitor, also denoted SERPIN; purchased from Sigma-Aldrich”: the “SPR binding behaviour towards rPR3 (in words)” value with rPR3 [1] is listed as “hardly dissociated”. In addition, the “first-order rate constant k2 (EI* to irreversible EI)” value in the test on PR3 is 0.04 s⁻¹. The half-inhibitory concentration (IC50) with hPR3 (IC50 replicates Rep1-Rep3, listed as a1-antitrypsin, read-out: hPR3 IC50) is 15.8 nM and 15.5 nM and 14.6 nM; with hPR3 (setting [7]), 15 ± 1 nM; with rPR3 [2] (IC50 replicates Rep1-Rep3, listed as a1-antitrypsin, read-out: rPR3 IC50), 15.3 nM and 14.7 nM and 13.5 nM; with rPR3 [2] (setting [9]) it was 14 ± 1 nM.

The term Kd denotes a measure of binding affinity in units of concentration. By IC50 is commonly meant the concentration at which inhibition is half-maximal. One may read the Ki as the dissociation constant of the complex between target and ligand, obtained from inhibition or displacement.
